As a reminder, the inhibition is the relative decrease from the control value, in per cent.

Residues, ends and D or L forms follow the SMILES beside them.

What all share (format): biochemical
Assay [1] deals with T1, OfHex1 (Ostrinia furnacalis, UniProt Q06GJ0).
T1 construct: PDB id is that of the docking structure
T1 sequence (Q06GJ0 23-594): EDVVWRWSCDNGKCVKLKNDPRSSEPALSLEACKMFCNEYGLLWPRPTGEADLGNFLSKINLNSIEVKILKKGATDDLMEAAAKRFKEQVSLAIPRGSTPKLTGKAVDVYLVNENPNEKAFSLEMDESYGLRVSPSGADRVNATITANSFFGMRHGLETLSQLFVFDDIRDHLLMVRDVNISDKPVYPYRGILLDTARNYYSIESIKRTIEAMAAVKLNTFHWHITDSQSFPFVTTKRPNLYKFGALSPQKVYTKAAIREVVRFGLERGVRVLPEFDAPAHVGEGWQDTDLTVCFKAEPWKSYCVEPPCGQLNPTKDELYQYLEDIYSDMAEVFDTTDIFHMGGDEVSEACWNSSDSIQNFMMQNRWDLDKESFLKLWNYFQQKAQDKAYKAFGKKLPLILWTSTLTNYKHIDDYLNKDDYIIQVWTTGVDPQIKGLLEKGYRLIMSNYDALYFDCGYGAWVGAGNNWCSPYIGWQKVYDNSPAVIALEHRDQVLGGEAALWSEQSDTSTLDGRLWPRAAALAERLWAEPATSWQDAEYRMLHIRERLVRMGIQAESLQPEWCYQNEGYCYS
As to the kind of experiment: fluorescence assay of released 4-methylumbelliferone. To be noted: read-out: % inhibition at 1 mM.

Another assay has as its target T2, OfChtI (Ostrinia furnacalis, UniProt Q2V6H4).
T2 construct: PDB id is that of the docking structure
The assay is described as above. Conditions: read-out: % inhibition at 1 mM.

The target in assay [2] is T1, OfHex1. As to the kind of experiment: fluorescence of released 4-methylumbelliferone. Conditions: 10 μM substrate, 20 mM sodium phosphate pH 6.0, 30 °C, 30 min.
A further assay addresses T3, OfChi-h (Ostrinia furnacalis, UniProt Q4AE59).
T3 construct: PDB id is that of the docking structure
As to the kind of experiment: fluorescence assay of released 4-methylumbelliferone. Conditions: read-out: % inhibition at 1 mM.

T2 sequence (Q2V6H4 19-407): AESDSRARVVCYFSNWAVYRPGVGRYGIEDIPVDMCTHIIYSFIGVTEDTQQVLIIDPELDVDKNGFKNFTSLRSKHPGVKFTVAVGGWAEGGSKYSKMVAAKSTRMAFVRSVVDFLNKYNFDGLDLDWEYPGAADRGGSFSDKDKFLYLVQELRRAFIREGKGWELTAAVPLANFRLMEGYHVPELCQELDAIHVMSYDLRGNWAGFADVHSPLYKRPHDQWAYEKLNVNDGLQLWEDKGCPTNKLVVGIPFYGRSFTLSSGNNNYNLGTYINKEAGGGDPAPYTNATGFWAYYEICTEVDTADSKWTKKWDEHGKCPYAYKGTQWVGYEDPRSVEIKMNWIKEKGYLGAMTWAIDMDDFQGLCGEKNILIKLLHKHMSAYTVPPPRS
T3 sequence (Q4AE59 18-553): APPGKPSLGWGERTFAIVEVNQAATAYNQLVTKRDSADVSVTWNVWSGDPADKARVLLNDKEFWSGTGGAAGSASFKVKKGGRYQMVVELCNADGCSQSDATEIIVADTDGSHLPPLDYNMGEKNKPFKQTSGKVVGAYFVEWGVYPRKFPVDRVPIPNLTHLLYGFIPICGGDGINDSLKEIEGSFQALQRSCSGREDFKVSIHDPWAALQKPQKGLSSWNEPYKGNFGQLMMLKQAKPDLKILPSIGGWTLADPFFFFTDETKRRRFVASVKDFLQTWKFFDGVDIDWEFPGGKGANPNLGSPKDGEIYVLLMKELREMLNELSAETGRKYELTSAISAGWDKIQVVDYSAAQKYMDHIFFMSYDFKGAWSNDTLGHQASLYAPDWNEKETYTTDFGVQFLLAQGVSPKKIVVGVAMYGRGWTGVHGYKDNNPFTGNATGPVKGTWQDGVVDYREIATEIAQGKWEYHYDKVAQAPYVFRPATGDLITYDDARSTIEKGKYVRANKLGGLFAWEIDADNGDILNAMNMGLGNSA

Regarding `N[C@@H](Cc1ccccc1)C(=O)N1CCC[C@H]1C(=O)N[C@@H](Cc1ccc(O)cc1)C(=O)O` [FPY] (H-Phe-Pro-Tyr-OH), the inhibition at 1000 µM on OfHex1 [1] and on OfChtI was below 50% in each case.
With `CC(=O)N[C@H]1[C@H](Oc2ccc3c(C)cc(=O)oc3c2)O[C@H](CO)[C@@H](O)[C@@H]1O` [MU-GlcNAc], the “fluorescence of released 4-methylumbelliferone” value at OfHex1 [2] is reported as “the substrate for OfHex1 was MU-GlcNAc”.
With `NC(=O)CC[C@H](N)C(=O)N[C@@H](Cc1c[nH]c2ccccc12)C(=O)N[C@@H](Cc1c[nH]c2ccccc12)C(=O)O` [QWW] (H-Gln-Trp-Trp-OH), the inhibition at 1000 µM at OfChtI was determined as 55.3%.
With `N[C@@H](Cc1ccc(O)cc1)C(=O)N[C@@H](Cc1ccccc1)C(=O)N1CCC[C@H]1C(=O)O` [YFP] (H-Tyr-Phe-Pro-OH), the inhibition at 1000 µM was 14.8% at OfChi-h, below 50% at OfHex1 [1] and below 50% on OfChtI.
